Values of other authors, collected in patent US20250288577A1, “METHODS OF TREATING A VIRUS INFECTION AND METHODS OF INHIBITING VIRAL REPLICATION” (CORNELL UNIVERSITY, priority 2022, published 2025).

Legend:
Adenovirus = conditions: reported in literature
influenza A = conditions: reported in literature

O=C(Cc1cccc(OC(F)(F)F)c1)Nc1ccc(CCCCc2nnc(NC(=O)Cc3ccccn3)s2)nn1 [CB839, Telaglenastat]
block of Adenovirus (Adenovirus): block | block of influenza A (influenza A): block
